From patent US11617726B2, “Method for preventing, treating, or ameliorating a microbial infection” (priority 2018, dated 2023)

System: Acinetobacter baumannii isolates
Test: Antimicrobial susceptibility test, disc diffusion method (CLSI M100-S24)
Format: cell-based
Parameters: key to Inhibition zone: “NZ” indicated that no zone of inhibition was observed
Settings: for Inhibition zone: disc diffusion; for susceptibility category: AK disc
Description: A total of 33 non-duplicate, non-consecutive clinical isolates of Multi-Drug Resistant (MDR) Acinetobacter baumannii were collected from burn wards (“AB1-AB33”). Acinetobacter baumannii ATCC BAA 747 and Pseudomonas aeruginosa ATCC 27853 were used as control strains. The isolates were stored at −80° C. in trypticase soy broth containing 20% glycerol.
Antimicrobial susceptibility tests of the collection of isolates were conducted using the disc diffusion method. The experiment was performed according to the recommendations and guidelines of Clinical Laboratory Standard Institutes (CLSI M100-S24; 2014). Clinical and Laboratory Standards Institute (CLSI), “Performance standards for antimicrobial susceptibility testing; twenty-fourth informational supplement,” Document M100-S24, Clinical and Laboratory Standards Institute (CLSI), Wayne, Pa., USA, 2014.
A panel of commercial antibiotic discs (Amoxicillin (AMX), Amoxicillin/clavulanic acid (AMX/CLA), Piperacillin (PIP), Piperacillin/Tazobactam (PIP/TAZ), Ceftazidime (CAZ), Cefotaxime (CTX), Cefepime (FEP), Cefoxitin (FOX), Aztreonam (ATM), Imipenem (IP), Gentamicin (GEN), Amikacin (AK), Neomycin (NEO), Levofloxacin (LEV), Chloramphenicol (CHL), Tetracycline (TET), sulfamethoxazole/trimethoprim (SUL/TRI) was used for susceptibility testing. All commercial antibiotic discs were purchased from BBL (Becton Dickinson, USA).
Forty grams of Mueller-Hinton Agar (MHA) were suspended in 1 Liter distilled water and then boiled to dissolve the powder completely. The medium was sterilized by autoclaving at 121° C. for 15 min. After autoclaving, the medium was cooled to 45° C. and 25 mL of molten agar media was poured into sterile Petri dishes (90 mm diameter) to give a depth of about 4 mm. The surface of the agar was dried to remove excess moisture before use. The plates were stored at 4-8° C. in sealed plastic bags if not used immediately.
The inoculum suspension was prepared by selecting three to five morphologically similar colonies from overnight growth (16-24 h of incubation) on blood agar medium. […] The suspension density was measured using a UV spectrophotometer calibrated with a 0.5 McFarland standard. The density of the suspension was adjusted to McFarland 0.5 by addition of saline or more microorganisms. The adjusted inoculum suspension was used within 60 min of preparation.
A sterile cotton swab was dipped into the bacterial suspension and the excess fluid was removed by turning the swab against the inside wall of the tube to avoid over-inoculation of plates. The inoculum was spread evenly over the entire surface of the agar plate by swabbing in three directions.
The predetermined panel of antimicrobial disks was applied firmly on the inoculated Mueller-Hinton agar surface within 15 min of inoculation of the plates by a disc dispenser device. A maximum of six disks were accommodated on a 90-mm circular plate.
Within 15 min of application of antimicrobial disks, the plates were inverted and incubated aerobically at 35-37° C. for 18-20 h.
After incubation, inhibition zones were measured at the point where no obvious growth is detected by the unaided eye when the plate is held about 30 cm from the eye. Inhibition zone diameters were measured to the nearest millimeter with a ruler. The plates were read from the back of the plate with reflected light against a dark background. Zone diameters were interpreted and categorized as susceptible “S”, intermediate “I”, or resistant “R” according to the CLSI clinical breakpoint tables (see Table 1 and Table 2).

## CO/N=C(\C(=O)N[C@@H]1C(=O)N2C(C(=O)[O-])=C(C[N+]3(C)CCCC3)CS[C@H]12)c1csc(N)n1 [FEP, Cefepime]
Isolate AB1
  Inhibition zone: 20 mm
Isolate AB2
  Inhibition zone: 16 mm
Isolate AB3
  Inhibition zone: 18 mm
Isolate AB4
  Inhibition zone: 14 mm
Isolate AB5
  Inhibition zone: 7 mm
Isolate AB6
  Inhibition zone: 21 mm
Isolate AB7
  Inhibition zone: NZ
Isolate AB8
  Inhibition zone: NZ
Isolate AB9
  Inhibition zone: 22 mm
Isolate AB10
  Inhibition zone: 7 mm
Isolate AB11
  Inhibition zone: NZ
Isolate AB12
  Inhibition zone: NZ
Isolate AB13
  Inhibition zone: NZ
Isolate AB14
  Inhibition zone: NZ
Isolate AB15
  Inhibition zone: 8 mm
Isolate AB16
  Inhibition zone: 35 mm
Isolate AB17
  Inhibition zone: 11 mm
Isolate AB18
  Inhibition zone: NZ
Isolate AB19
  Inhibition zone: NZ
Isolate AB20
  Inhibition zone: NZ
Isolate AB21
  Inhibition zone: NZ
Isolate AB22
  Inhibition zone: NZ
Isolate AB23
  Inhibition zone: NZ
Isolate AB24
  Inhibition zone: 7 mm
Isolate AB25
  Inhibition zone: 10 mm
Isolate AB26
  Inhibition zone: 14 mm
Isolate AB27
  Inhibition zone: 8 mm
Isolate AB28
  Inhibition zone: NZ
Isolate AB29
  Inhibition zone: NZ
Isolate AB30
  Inhibition zone: NZ
Isolate AB31
  Inhibition zone: NZ
Isolate AB32
  Inhibition zone: NZ
Isolate AB33
  Inhibition zone: 18 mm

## NC[C@@H]1O[C@H](O[C@H]2[C@@H](O)[C@H](O[C@@H]3[C@@H](O)[C@H](N)C[C@H](N)[C@H]3O[C@H]3O[C@H](CN)[C@@H](O)[C@H](O)[C@H]3N)O[C@@H]2CO)[C@H](N)[C@@H](O)[C@@H]1O [NEO, Neomycin]
Isolate AB1
  Inhibition zone: 23 mm
Isolate AB2
  Inhibition zone: 20 mm
Isolate AB3
  Inhibition zone: 22 mm
Isolate AB4
  Inhibition zone: 27 mm
Isolate AB5
  Inhibition zone: 10 mm
Isolate AB6
  Inhibition zone: 14 mm
Isolate AB7
  Inhibition zone: 12 mm
Isolate AB8
  Inhibition zone: 11 mm
Isolate AB9
  Inhibition zone: 20 mm
Isolate AB10
  Inhibition zone: NZ
Isolate AB11
  Inhibition zone: NZ
Isolate AB12
  Inhibition zone: 15 mm
Isolate AB13
  Inhibition zone: 9 mm
Isolate AB14
  Inhibition zone: NZ
Isolate AB15
  Inhibition zone: 13 mm
Isolate AB16
  Inhibition zone: NZ
Isolate AB17
  Inhibition zone: 20 mm
Isolate AB18
  Inhibition zone: 15 mm
Isolate AB19
  Inhibition zone: 13 mm
Isolate AB20
  Inhibition zone: NZ
Isolate AB21
  Inhibition zone: 13 mm
Isolate AB22
  Inhibition zone: 7 mm
Isolate AB23
  Inhibition zone: 10 mm
Isolate AB24
  Inhibition zone: 14 mm
Isolate AB25
  Inhibition zone: 8 mm
Isolate AB26
  Inhibition zone: 20 mm
Isolate AB27
  Inhibition zone: 9 mm
Isolate AB28
  Inhibition zone: 15 mm
Isolate AB29
  Inhibition zone: 15 mm
Isolate AB30
  Inhibition zone: 15 mm
Isolate AB31
  Inhibition zone: 8 mm
Isolate AB32
  Inhibition zone: 10 mm
Isolate AB33
  Inhibition zone: 20 mm

## NCC[C@H](O)C(=O)N[C@@H]1C[C@H](N)[C@@H](O[C@H]2O[C@H](CN)[C@@H](O)[C@H](O)[C@H]2O)[C@H](O)[C@H]1O[C@H]1O[C@H](CO)[C@@H](O)[C@H](N)[C@H]1O [AK, Amikacin]
Isolate AB1
  susceptibility category: S (Sensitive ≥17)
  Inhibition zone: 24 mm
Isolate AB2
  susceptibility category: S (Sensitive ≥17)
  Inhibition zone: 20 mm
Isolate AB3
  susceptibility category: S (Sensitive ≥17)
  Inhibition zone: 26 mm
Isolate AB4
  susceptibility category: S (Sensitive ≥17)
  Inhibition zone: 21 mm
Isolate AB5
  Inhibition zone: 7 mm
Isolate AB6
  susceptibility category: S (Sensitive ≥17)
  Inhibition zone: 30 mm
Isolate AB7
  Inhibition zone: NZ
Isolate AB8
  Inhibition zone: 12 mm
Isolate AB9
  susceptibility category: S (Sensitive ≥17)
  Inhibition zone: 22 mm
Isolate AB10
  Inhibition zone: NZ
Isolate AB11
  Inhibition zone: NZ
Isolate AB12
  susceptibility category: S (Sensitive ≥17)
  Inhibition zone: 21 mm
Isolate AB13
  susceptibility category: S (Sensitive ≥17)
  Inhibition zone: 22 mm
Isolate AB14
  Inhibition zone: NZ
Isolate AB15
  Inhibition zone: 13 mm
Isolate AB16
  susceptibility category: S (Sensitive ≥17)
  Inhibition zone: 19 mm
Isolate AB17
  susceptibility category: S (Sensitive ≥17)
  Inhibition zone: 22 mm
Isolate AB18
  Inhibition zone: 14 mm
Isolate AB19
  Inhibition zone: 14 mm
Isolate AB20
  Inhibition zone: NZ
Isolate AB21
  Inhibition zone: 11 mm
Isolate AB22
  Inhibition zone: NZ
Isolate AB23
  Inhibition zone: NZ
Isolate AB24
  Inhibition zone: 14 mm
Isolate AB25
  Inhibition zone: NZ
Isolate AB26
  susceptibility category: S (Sensitive ≥17)
  Inhibition zone: 18 mm
Isolate AB27
  Inhibition zone: 9 mm
Isolate AB28
  Inhibition zone: 15 mm
Isolate AB29
  Inhibition zone: 15 mm
Isolate AB30
  Inhibition zone: 15 mm
Isolate AB31
  Inhibition zone: NZ
Isolate AB32
  Inhibition zone: NZ
Isolate AB33
  susceptibility category: S (Sensitive ≥17)
  Inhibition zone: 25 mm

## Gentamicin
Isolate AB1
  Inhibition zone: 24 mm
Isolate AB2
  Inhibition zone: 20 mm
Isolate AB3
  Inhibition zone: 24 mm
Isolate AB4
  Inhibition zone: 22 mm
Isolate AB5
  Inhibition zone: 15 mm
Isolate AB6
  Inhibition zone: 26 mm
Isolate AB7
  Inhibition zone: NZ
Isolate AB8
  Inhibition zone: NZ
Isolate AB9
  Inhibition zone: 21 mm
Isolate AB10
  Inhibition zone: NZ
Isolate AB11
  Inhibition zone: NZ
Isolate AB12
  Inhibition zone: 12 mm
Isolate AB13
  Inhibition zone: NZ
Isolate AB14
  Inhibition zone: NZ
Isolate AB15
  Inhibition zone: 20 mm
Isolate AB16
  Inhibition zone: 18 mm
Isolate AB17
  Inhibition zone: 24 mm
Isolate AB18
  Inhibition zone: 17 mm
Isolate AB19
  Inhibition zone: 20 mm
Isolate AB20
  Inhibition zone: NZ
Isolate AB21
  Inhibition zone: 17 mm
Isolate AB22
  Inhibition zone: NZ
Isolate AB23
  Inhibition zone: NZ
Isolate AB24
  Inhibition zone: 19 mm
Isolate AB25
  Inhibition zone: 19 mm
Isolate AB26
  Inhibition zone: NZ
Isolate AB27
  Inhibition zone: 8 mm
Isolate AB28
  Inhibition zone: 20 mm
Isolate AB29
  Inhibition zone: 20 mm
Isolate AB30
  Inhibition zone: 20 mm
Isolate AB31
  Inhibition zone: 8 mm
Isolate AB32
  Inhibition zone: NZ
Isolate AB33
  Inhibition zone: 20 mm
